According to patent publication US11419335B2, “N-arylated analogues and uses thereof” (University of Florida Research Foundation, Incorporated, priority 2016, dated 2022):
Where two headings read alike, the source gives them in different places. Marks after values point to notes of the source that are not given here.

What was measured:
[1] = tested on: methicillin-resistant Staphylococcus aureus MRSA-2 (clinical isolate); test: MIC broth microdilution, MRSA-2; type: cell-based; settings: for MIC: read-out: MIC MRSA-2
Experimental: (§1) The minimum inhibitory concentration (MIC) for each tested compound was determined by the broth microdilution method as recommended by the Clinical and Laboratory Standards Institute (CLSI). In a 96-well plate, eleven two-fold serial dilutions of each compound were made in a final volume of 100 μL Luria Broth. Each well was inoculated with ˜10^5 bacterial cells at the initial time of incubation, prepared from a fresh log phase culture (OD600 of 0.5 to 1.0 depending on bacterial strain). The MIC was defined as the lowest concentration of compound that prevented bacterial growth after incubating 16 to 18 hours at 37° C. (MIC values were supported by spectrophotometric readings at OD600). DMSO served as our vehicle and negative control in each microdilution MIC assay. DMSO was serially diluted with a top concentration of 1% v/v.
as §1, with “for each compound was” for “for each tested compound was”, “Standards Institute (CLSI).^6 In a” for “Standards Institute (CLSI). In a”, “concentration of test compound that” for “concentration of compound that”, “37° C. The concentration range tested for each compound during this study was 0.10 to 100 μM. DMSO served” for “37° C. (MIC values were supported by spectrophotometric readings at OD600). DMSO served”, “1% v/v. All MIC values were obtained from a minimum of three independent experiments.” for “1% v/v.”

MRSA BAA-1707 = test: MIC broth microdilution, MRSA BAA-1707; type: cell-based, Staphylococcus aureus; settings: for MIC: read-out: MIC MRSA BAA-1707; for MIC MRSA 1707: Table 4
Experimental: as §1, with “The MIC was defined as the lowest concentration of compound that prevented bacterial growth after incubating 16 to 18 hours at 37° C.” left out
(§2) Each well was inoculated with ˜10^5 bacterial cells at the initial time of incubation, prepared from a fresh log phase culture (OD600 of 0.5 to 1.0 depending on bacterial strain). […] The concentration range tested for each compound during this study was 0.10 to 100 μM. DMSO served as our vehicle and negative control in each microdilution MIC assay. DMSO was serially diluted with a top concentration of 1% v/v. All MIC values were obtained from a minimum of three independent experiments.

[2] = tested on: methicillin-resistant Staphylococcus epidermidis (MRSE strain ATCC 35984); test: MIC broth microdilution, MRSE 35984; type: cell-based; settings: for MIC MRSE 35984: Table 4
Experimental: as §1
as §1, with “for each compound was” for “for each tested compound was”, “Standards Institute (CLSI).^6 In a” for “Standards Institute (CLSI). In a”, “concentration of test compound that” for “concentration of compound that”, “37° C. The concentration range tested for each compound during this study was 0.10 to 100 μM. DMSO served” for “37° C. (MIC values were supported by spectrophotometric readings at OD600). DMSO served”, “1% v/v. All MIC values were obtained from a minimum of three independent experiments.” for “1% v/v.”

[3] = tested on: vancomycin-resistant Enterococcus faecium (VRE strain ATCC 700221); test: MIC broth microdilution, VRE 700221; type: cell-based; settings: for MIC VRE 700221: Table 4
Experimental: as §1
as §1, with “for each compound was” for “for each tested compound was”, “Standards Institute (CLSI).^6 In a” for “Standards Institute (CLSI). In a”, “concentration of test compound that” for “concentration of compound that”, “37° C. The concentration range tested for each compound during this study was 0.10 to 100 μM. DMSO served” for “37° C. (MIC values were supported by spectrophotometric readings at OD600). DMSO served”, “1% v/v. All MIC values were obtained from a minimum of three independent experiments.” for “1% v/v.”

[4] = tested on: Acinetobacter baumannii (ATCC 1794); test: MIC broth microdilution, A. baumannii 1794; type: cell-based; settings: for MIC A. bau. 1794: Table 4
Experimental: as §1
as §1, with “for each compound was” for “for each tested compound was”, “Standards Institute (CLSI).^6 In a” for “Standards Institute (CLSI). In a”, “concentration of test compound that” for “concentration of compound that”, “37° C. The concentration range tested for each compound during this study was 0.10 to 100 μM. DMSO served” for “37° C. (MIC values were supported by spectrophotometric readings at OD600). DMSO served”, “1% v/v. All MIC values were obtained from a minimum of three independent experiments.” for “1% v/v.”

[5] = tested on: Pseudomonas aeruginosa (PAO1); test: MIC broth microdilution, PAO1; type: cell-based
Experimental: as §1
as §1, with “for each compound was” for “for each tested compound was”, “Standards Institute (CLSI).^6 In a” for “Standards Institute (CLSI). In a”, “concentration of test compound that” for “concentration of compound that”, “37° C. The concentration range tested for each compound during this study was 0.10 to 100 μM. DMSO served” for “37° C. (MIC values were supported by spectrophotometric readings at OD600). DMSO served”, “1% v/v. All MIC values were obtained from a minimum of three independent experiments.” for “1% v/v.”

[6] = tested on: methicillin-sensitive Staphylococcus aureus ATCC 29213; test: MIC broth microdilution, S. aureus 29213; type: cell-based
Experimental: as §1, with “The MIC was defined as the lowest concentration of compound that prevented bacterial growth after incubating 16 to 18 hours at 37° C.” left out
as §2

[7] = tested on: MRSA-1 (clinical isolate); test: MIC broth microdilution, MRSA-1; type: cell-based, Staphylococcus aureus
Experimental: as §1, with “The MIC was defined as the lowest concentration of compound that prevented bacterial growth after incubating 16 to 18 hours at 37° C.” left out
as §2

[8] = tested on: SA-129 (clinical isolate); test: MIC broth microdilution, SA-129; type: cell-based, Staphylococcus aureus
Experimental: as §1, with “The MIC was defined as the lowest concentration of compound that prevented bacterial growth after incubating 16 to 18 hours at 37° C.” left out
as §2

[9] = tested on: SA-147 (clinical isolate); test: MIC broth microdilution, SA-147; type: cell-based, Staphylococcus aureus
Experimental: as §1, with “The MIC was defined as the lowest concentration of compound that prevented bacterial growth after incubating 16 to 18 hours at 37° C.” left out
as §2

[10] = tested on: SA-138 (clinical isolate); test: MIC broth microdilution, SA-138; type: cell-based, Staphylococcus aureus
Experimental: as §1, with “The MIC was defined as the lowest concentration of compound that prevented bacterial growth after incubating 16 to 18 hours at 37° C.” left out
as §2

[11] = tested on: SA-156 (clinical isolate); test: MIC broth microdilution, SA-156; type: cell-based, Staphylococcus aureus
Experimental: as §1, with “The MIC was defined as the lowest concentration of compound that prevented bacterial growth after incubating 16 to 18 hours at 37° C.” left out
as §2

MRSA BAA-44 = test: MIC broth microdilution, MRSA BAA-44; type: cell-based, Staphylococcus aureus
Experimental: as §1, with “The MIC was defined as the lowest concentration of compound that prevented bacterial growth after incubating 16 to 18 hours at 37° C.” left out
as §2

[12] = tested on: human red blood cells (hRBC); test: Hemolysis of red blood cells; type: cell-based; settings: for RBC HC50: Table 4, concentration required to lyse 50% of red blood cells
Experimental: The washing was repeated three times with the buffer. In a 96-well plate, test compounds were added to the buffer from DMSO stocks. […] The plate was then incubated for 1 hour at 37° C. After incubation, the plate was centrifuged for 5 minutes at 3,500 rpm. Then 80 μL of the supernatant was transferred to another 96-well plate and the optical density (OD) was read at 405 nm. DMSO served as our negative control (0% hemolysis) while Triton X served as our positive control (100% hemolysis). […] All reported data correspond to three independent experiments. Ten-point dose-response curves were generated in 96-well plates to determine 50% hemolysis (HC50 values) of red blood cells.
The washing was repeated three times with the buffer. In 96-well plate, the test compounds were added to the buffer. Then 50 μL of 2% of hRBCs in the buffer were added to the test plate to make the final concentrations ranging from 0.2 to 200 μM of each test compound. The plate was then incubated for 1 hour at 37° C. After incubation, the plate was centrifuged for 5 minutes at 3500 rpm and then 80 μL of the supernatant was transferred to another 96-well plate and the Optical Density (OD) was read at 405 nm. DMSO served as our negative control (0% haemolysis) and Triton X served as our positive control (100% haemolysis). The HC50 (concentration of test compound required to lyse red blood cells by 50%) was calculated by plotting the dose-response curve (not shown) with Graphpad Prism 6.0. All data were obtained from three independent haemolysis experiments.

MRSA-2 biofilms = test: Calgary Biofilm Device assay (MBC/MBEC), MRSA-2; type: cell-based, Staphylococcus aureus; settings: Table 2A; CBD assay
Experimental: The lid of the Calgary device was then removed, washed and transferred to another 96-well plate containing 2-fold serial dilutions of the test compounds (the “challenge plate”). The total volume of media with compound in each well in the challenge plate is 150 μL. […] The lid was then removed from the challenge plate and MBC/MBEC values were determined using different final assays. […] The MBC values were determined as the concentration giving a lack of visible bacterial growth (i.e., turbidity). […] In select experiments, pegs from the Calgary device were removed from lead biofilm eradicators after final incubation, sonicated for 30 minutes in PBS and plated out to determine biofilm cell killing of lead biofilm-eradicating agents (i.e., colony forming unit per milliliter, CFU/mL).
Using a Calgary Biofilm Device, bacterial biofilms are established on pegs suspended to the bottom of a 96-well plate lid. Following biofilm establishment on lid pegs, lids are then transferred to new 96-well plates containing serial dilutions of test compound and allowed to incubate. After compound treatment, 96-well plate lids with pegs are once again transferred to 96-well plates containing fresh media. During this final phase of the assay, viable biofilms will grow and disperse planktonic cells into the media where they will grow and give a turbid well result. Conversely, wells that have no growth are a result of pegs that had eradicated bacterial biofilms. The lowest concentration at which no turbidity is observed is the minimum biofilm eradication concentration (MBEC). Using the Calgary Biofilm Device, both minimum biofilm eradication concentrations and minimum bactericidal concentrations (MBC) for planktonic bacterial can be determined using one assay from a single bacterial culture (FIG. 3A).

[13] = tested on: Klebsiella pneumoniae (ATCC 13883); test: MIC broth microdilution, K. pneumoniae 13883; type: cell-based; settings: Table 4
Experimental: as §1
as §1, with “for each compound was” for “for each tested compound was”, “Standards Institute (CLSI).^6 In a” for “Standards Institute (CLSI). In a”, “concentration of test compound that” for “concentration of compound that”, “37° C. The concentration range tested for each compound during this study was 0.10 to 100 μM. DMSO served” for “37° C. (MIC values were supported by spectrophotometric readings at OD600). DMSO served”, “1% v/v. All MIC values were obtained from a minimum of three independent experiments.” for “1% v/v.”

[14] = tested on: Escherichia coli clinical isolate (UAEC-1); test: MIC broth microdilution, UAEC-1; type: cell-based; settings: Table 4
Experimental: as §1
as §1, with “for each compound was” for “for each tested compound was”, “Standards Institute (CLSI).^6 In a” for “Standards Institute (CLSI). In a”, “concentration of test compound that” for “concentration of compound that”, “37° C. The concentration range tested for each compound during this study was 0.10 to 100 μM. DMSO served” for “37° C. (MIC values were supported by spectrophotometric readings at OD600). DMSO served”, “1% v/v. All MIC values were obtained from a minimum of three independent experiments.” for “1% v/v.”

SMILES: CCCCCCCCCCCCCCCCn1c(C)[n+](Cc2ccccc2)c2ccccc21.[Br-] [Compound 25]
- MIC MRSA-2 ([1]; Table 1A): 3.13 µM
- MIC ([1]; Table 1B): 12.5 µM
- MRSA-2 MIC ([1]; Table 2A): 3.13 µM
- MIC ([1]; Table 3): 3.13 µM
- MIC MRSA-2 ([1]; Table 4): 3.13 µM
- MIC (MRSA BAA-1707; Table 1B): 12.5 µM
- MRSA BAA-1707 MIC (MRSA BAA-1707; Table 2A): 9.38^a μM
- MIC (MRSA BAA-1707; Table 3): 12.5 µM
- MIC MRSA 1707 (MRSA BAA-1707): 9.38a micromolar
- MIC S. epidermidis MRSE 35984 ([2]; Table 1A): 3.13 µM
- MIC ([2]; Table 2A, read-out: MRSE 35984 MIC): 3.13 µM
- MIC MRSE 35984 [2]: 3.13 µM
- MIC E. faecium VRE 700221 ([3]; Table 1A): 1.56 µM
- VRE MIC ([3]; Table 2A): 1.56 µM
- MIC VRE 700221 [3]: 1.56 µM
- MIC A. baumannii 1794 ([4]; Table 1A, in µM): >100
- MIC A. bau. 1794 [4]: >100 µM
- MIC PAO1 ([5]; Table 1A): > 100 µM
- MIC PAO1 ([5]; Table 4): >100 µM
- MIC ([6]; Table 1B): 12.5 µM
- MIC ([6]; Table 3): 12.5 µM
- MIC ([7]; Table 1B): 12.5 µM
- MIC ([7]; Table 3): 12.5 µM
- MIC ([8]; Table 1B): 3.13 µM
- MIC ([8]; Table 3): 3.13 µM
- MIC ([9]; Table 1B): 6.25 µM
- MIC ([9]; Table 3): 6.25 µM
- MIC ([10]; Table 1B): 6.25 µM
- MIC ([10]; Table 3): 6.25 µM
- MIC ([11]; Table 1B): 12.5 µM
- MIC ([11]; Table 3): 12.5 µM
- MIC (MRSA BAA-44; Table 1B): 12.5 µM
- MIC (MRSA BAA-44; Table 3): 12.5 µM
- HC50 ([12]; Table 1A): 10.4 µM
- RBC HC50 [12]: 10.4 µM
- MRSA-2 MBC (MRSA-2 biofilms): 250 µM
- MRSA-2 MBEC (MRSA-2 biofilms): 188 µM

SMILES: CCCCCCCCCCCCCCCCn1cc[n+](Cc2ccccc2C[n+]2ccn(CCCCCCCCCCCCCCCC)c2C)c1C.[Br-].[Br-] [Compound 29]
- MIC MRSA-2 ([1]; Table 4): >100 µM
- MIC MRSA 1707 (MRSA BAA-1707): >100 µM
- MIC MRSE 35984 [2]: >100 µM
- MIC VRE 700221 [3]: >100 µM
- MIC A. bau. 1794 [4]: >100 µM
- MIC PAO1 ([5]; Table 4): >100 µM
- MIC K. pneu. 13883 [13]: >100 µM
- MIC UAEC-1 [14]: >100 µM
- RBC HC50 [12]: 34.5 µM
